In PMC5397059, “Design, synthesis and structure-activity relationship study of wollamide B; a new potential anti TB agent” (PLoS ONE, 2017):
≈ marks a conversion by molar mass, not a printed value. Non-standard residues stand in square brackets, D forms with d. Residues, ends and D or L forms follow the SMILES beside them. *: point of attachment. dPhe(4-Cl) = N[C@H](Cc1ccc(Cl)cc1)C(=O)O; dOrn = NCCC[C@@H](N)C(=O)O; tBu = CC(C)(C)*

Tests used:
[1] = Chemi-Luminescent Nitrogen Detection (CLND) kinetic solubility assay; assay type: physicochemical; settings: phosphate buffered saline, pH 7.4; kinetic aqueous solubility by CLND; read-out: Solubility
Method: GSK in-house kinetic solubility assay: 5 μL of 10mM DMSO stock solution diluted to 100 uL with pH7.4 phosphate buffered saline, equilibrated for 1 hour at room temperature, filtered through Millipore Multiscreen HTS-PCF filter plates (MSSL BPC).
The filtrate is quantified by suitably calibrated flow injection CLND. The standard error of the CLND solubility determination is ±30 μM, the upper limit of the solubility is 500 μM when working from 10 mM DMSO stock solution.

[2] = target: human serum albumin (Homo sapiens, UniProt P02768); experiment: Human serum albumin (HSA) binding assay; assay type: in vitro ADME; settings: human serum albumin binding
Method: HSA binding assay was performed according to the method described by Valko K, et al. The basic principle of the measurements is the determination of gradient retention times of compounds on immobilized HSA column and converting these retention times to the appropriate property values using calibration. The peaks are detected and identified by UV. Calibration sets of compounds are measured before each run for which the HSA binding values are known. The retention times of the calibration set of compounds are plotted against these known values. The slope and the intercept of the obtained straight lines are used to calculate the HSA binding for the unknown compounds.

[3] = Artificial membrane permeability assay; assay type: in vitro ADME; settings: PAMPA, pH 7.4; passive artificial membrane permeability; read-out: Permeability
Method: A 8% L-a-phosphatidylcholine (EPC) in 1% cholesterol decane solution and a 1.8% EPC in cholesterol decane solution were prepared. The lipid solution was then aliquoted into 4 mL capped vials, sealed with parafilm and stored in-20°Cfreezer. The lipid solution was then transferred from 4 mL vial into 96-well half area plate (130μL/well) for daily assay usage. An additional 50 mM phosphate buffer with 0.5% encapsin, pH at 7.4 was prepared. The assay was run by the Biomek FX and Biomek software. The assay procedure is written under the Biomek software. For one batch assay, it can test two 96-well sample plates with at least one standard on each sample plate. The total assay time was about 4 hours. 3.5 μL of lipid solution were added to the filler plate, shaken for 12 seconds, and 250 μL of buffer were added to donor side and 100 μL to the receiver side. The assay plate was shaken for 45 min before adding the compounds. The test compounds (2.5 μL) were added to the donor side. The assay was run as replicates: Assay plates1 and 2 tested the sample plate 1; assay plates 3 and 4 tested the sample plate 2. The assay plates were then incubated and shaken for 3 hours at room temperature.
The assay samples were transferred to the HPLC analysis plates and 100 μL of receiver solution were aspirated and transferred to the receiver for analysis. Similarly, another 100 μL from the donor solution were transferred to the donor analysis plate.
Compound concentration was measured by HPLC at different time-points and permeability was established as nm/sec.

[4] = Intrinsic clearance (CLint) assay, human liver microsomes; assay type: in vitro ADME; settings: for CLint Human: human liver microsomes; for half-life at 0.5 µM: human, pooled human liver microsomes, pH 7.4, human liver microsomes, read-out: Microsomal t1/2 Human; for % LBF Human: liver blood flow; for CLpred Human: predicted metabolic clearance
Method: (§1) Pooled mouse and human liver microsomes are purchased from Xenotech. Microsomes (final protein concentration 0.5 mg/mL, MgCl2 (final concentration = 5 mM) and test compound (final substrate concentration = 0.5] M; final DMSO concentration = 0.5%) in 0.1 M phosphate buffer pH 7.4 are pre-incubated at 37°C prior to the addition of NADPH (final concentration = 1 mM) to initiate the reaction. The final incubation volume is 600 μL.
(§2) Control incubation is included for each compound tested where 0.1 M phosphate buffer pH 7.4 is added instead of NADPH (minus NADPH). One control compound is included with each species. All incubations are performed singularly for each test compound. Each compound is incubated for 45 minutes and samples (100 μL) of incubate are taken at 0, 5, 15, 30 and 45 min. The control (minus NADPH) is sampled at 30 min only. The reactions are stopped by the addition of sample to 200 μL Acetonitrile: Methanol 3:1 containing internal standard. The terminated samples are centrifuged at 2,500 rpm for 20 min at 4°C to precipitate the protein. Quantitative analysis: following protein precipitation, the samples were analyzed using specific LC-MS/MS conditions. Data analysis: from a plot of ln peak area ratio (compound peak area/internal standard peak area) against time, the gradient of the line was determined. Subsequently, half-life and intrinsic clearance were calculated using the equations below: Eliminationrateconstant(K)=(−gradient) Halflife(t1/2)(min)=0.693/K Cli(mL/min/gprotien)=V×0.693/t1/2 WhereV=Incubationvolume(mL/gmicrosomalprotien)

[5] = test system: Mtb H37Rv; settings: for MIC against Mtb H37Rv: duplicate, analogues; for antimycobacterial activity against Mtb H37Rv: at the maximum dose tested
[6] = Chrom logD assay; assay type: physicochemical; settings: reversed phase HPLC column (Gemini NX C18), pH 7.4; read-out: Log D
Method: The Chromatographic Hydrophobicity Index (CHI) values were measured using a reversed phase HPLC column (50 x 2 mmx 3 μMGemini NX C18, Phenomenex, UK) with fast acetonitrile gradient at starting mobile phase of 100% pH = 7.4 buffer. CHI values are derived directly from the gradient retention times by using a calibration line obtained for standard compounds. The CHI value approximates to the volume % organic concentration when the compound elutes. CHI is linearly transformed into ChromlogD by the formula: ChromlogD=0.0857CHI−2.00
The average error of the assay is ±3 CHI unit or ±0.25 ChromlogD.

[7] = Intrinsic clearance (CLint) assay, mouse liver microsomes; assay type: in vitro ADME; settings: for % LBF Mouse: liver blood flow; for CLint Mouse: mouse liver microsomes; for half-life at 0.5 µM: mouse, pooled mouse liver microsomes, pH 7.4, read-out: Microsomal t1/2 Mouse; for CLpred Mouse: predicted metabolic clearance
Method: as §1, §2

human serum albumin, sequence (P02768 25-609): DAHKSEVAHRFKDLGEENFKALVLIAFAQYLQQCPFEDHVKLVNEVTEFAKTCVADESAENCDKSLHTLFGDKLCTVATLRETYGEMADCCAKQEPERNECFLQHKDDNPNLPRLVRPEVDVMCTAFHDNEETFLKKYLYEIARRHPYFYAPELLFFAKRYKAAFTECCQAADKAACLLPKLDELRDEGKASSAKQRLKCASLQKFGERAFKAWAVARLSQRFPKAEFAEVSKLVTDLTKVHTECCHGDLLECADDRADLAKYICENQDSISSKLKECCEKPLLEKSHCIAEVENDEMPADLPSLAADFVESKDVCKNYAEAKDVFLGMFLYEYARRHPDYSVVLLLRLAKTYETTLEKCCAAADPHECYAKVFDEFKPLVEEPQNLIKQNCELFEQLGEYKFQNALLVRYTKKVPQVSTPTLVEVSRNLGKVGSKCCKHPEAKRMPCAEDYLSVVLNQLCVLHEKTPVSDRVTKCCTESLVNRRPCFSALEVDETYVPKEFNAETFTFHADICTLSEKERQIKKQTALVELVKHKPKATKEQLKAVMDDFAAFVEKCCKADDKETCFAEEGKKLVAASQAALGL

Row | Structure (SMILES) | solubility kinetic at 1 h [1] [µg/mL] | % HSA [2] [%] | Papp at 3 h [3] [×10⁻⁶ cm/s] | CLint Human [4] [mL/min/g tissue] | half-life at 0.5 µM [4] [h] | % LBF Human [4] [%] | CLpred Human [4] [mL/min/kg] | MIC against Mtb H37Rv [5] [µM] | chromatographic logD [6] | % LBF Mouse [7] [%] | CLint Mouse [7] [mL/min/g tissue] | half-life at 0.5 µM [7] [h] | CLpred Mouse [7] [mL/min/kg] | antimycobacterial activity against Mtb H37Rv [5]
1 | CC[C@H](C)[C@@H]1NC(=O)[C@H]([C@@H](C)CC)NC(=O)[C@@H](CC(C)C)NC(=O)[C@H](CC(C)C)NC(=O)[C@H](Cc2c[nH]c3ccccc23)NC(=O)[C@@H](CCCN)NC1=O [Compound 12c] (cyclo(II[dOrn]WL[dL])) | ≥ 206 | 96.06 | 1.9 | 5.93 | 0.155 | 88.98 | 16.02 | 3.1 (≈ 2.33 µg/mL) | 2.94 | <16.39 | <0.48 | > 2.31 | <20.50 | –
2 | CSCC[C@@H]1NC(=O)[C@@H](CC(C)C)NC(=O)[C@H](CC(C)C)NC(=O)[C@H](Cc2c[nH]c3ccccc23)NC(=O)[C@@H](CCCN)NC(=O)[C@H](CC(N)=O)NC1=O [Compound 8c] (cyclo(L[dL]MN[dOrn]W)) | ≥ 164 | 73.79 | < 1 | 1.79 | 0.511 | 70.90 | 12.76 | >80 | 1.78 | <16.30 | <0.48 | > 2.31 | – | complete loss of activity
3 | CC(C)C[C@H]1NC(=O)[C@@H](Cc2ccc(Cl)cc2)NC(=O)[C@H](Cc2c[nH]c3ccccc23)NC(=O)[C@@H](CCCN)NC(=O)[C@H](CC(N)=O)NC(=O)[C@H](C(C)C)NC1=O [Compound 17c] (cyclo(N[dOrn]W[dPhe(4-Cl)][dL]V)) | ≥ 230 | 93.83 | 1.7 | <0.40 | > 2.31 | <35.08 | <6.35 | 30 (≈ 24.3 µg/mL) | 2.12 | 17.9 | 0.54 | 2.06 | 22.60 | –
4 | CC[C@H](C)[C@@H]1NC(=O)[C@H](CC(C)C)NC(=O)[C@H](Cc2c[nH]c3ccccc23)NC(=O)[C@@H](CCCN)NC(=O)[C@H](CC(N)=O)NC(=O)[C@H](C(C)C)NC1=O [Compound 20c] (cyclo(IVN[dOrn]WL)) | ≥ 195 | 83.67 | < 0.3 | <0.40 | > 2.31 | <35.08 | <6.35 | >80 | 1.83 | <16.3 | <0.48 | > 2.31 | <20.50 | completely abolished the activity
5 | CC[C@H](C)[C@@H]1NC(=O)[C@@H](Cc2ccc(Cl)cc2)NC(=O)[C@H](CC(C)C)NC(=O)[C@H](Cc2c[nH]c3ccccc23)NC(=O)[C@@H](CCCN)NC(=O)[C@@H](CCCN)NC1=O [Compound 18c] (cyclo(I[dOrn][dOrn]WL[dPhe(4-Cl)])) | 7 (≈ 8.51 µM) | 98.70 | 8 | 1.06 | 0.862 | 59.15 | 10.65 | 17.5 (≈ 14.4 µg/mL) | – | 28.4 | 0.98 | 1.13 | 35.80 | –
6 | CC[C@H](C)[C@@H]1NC(=O)[C@@H](CC(C)C)NC(=O)[C@H](CC(C)C)NC(=O)[C@H](Cc2c[nH]c3ccccc23)NC(=O)[C@@H](CCCN)NC(=O)[C@H](COC(C)(C)C)NC1=O [Compound 11c] (cyclo(IS(tBu)[dOrn]WL[dL])) | 202 (≈ 258 µM) | 92.68 | < 0.3 | 3.33 | 0.276 | 81.90 | 14.70 | – | 3 | <16.3 | <0.48 | > 2.31 | <20.50 | –
7 | COc1ccc(C[C@@H]2NC(=O)[C@@H](CCCN)NC(=O)[C@H](CC(N)=O)NC(=O)[C@H](C(C)C)NC(=O)[C@@H](CC(C)C)NC(=O)[C@H](CC(C)C)NC2=O)cc1 [Compound 15c] (cyclo(L[dL]VN[dOrn]Y(Me))) | ≥ 189 | 46.55 | < 1 | <0.40 | > 2.31 | <35.08 | <6.35 | – | 1.73 | 24.00 | 0.78 | 1.43 | 30.20 | –
